Results as given in US20210401863A1, “TREATMENT AND PREVENTION OF NEISSERIA GONORRHOEAE INFECTION USING CMP-ACTIVATED NONULOSONATE ANALOG COMPOUNDS” (NATIONAL RESEARCH COUNCIL OF CANADA, priority 2015, published 2021).
Read-outs that look alike come from different tables or passages of the source.

Tests used:
N. gonorrhoeae F62 ΔlgtD [1] = conditions: from U.S. patent application Ser. No. 14/627,396; cited from earlier work
[2] = target: T1, gonococcal LOS sialyltransferase (Lst) (Neisseria gonorrhoeae, UniProt P72074); conditions: from U.S. patent application Ser. No. 14/627,396; cited from earlier work
T1 construct: CMP-KDN served as a substrate for gonococcal Lst in the context of live bacteria; endogenous in cells; host or cells: N. gonorrhoeae F62 ΔlgtD (live bacteria)
T1 sequence (P72074 whole entry): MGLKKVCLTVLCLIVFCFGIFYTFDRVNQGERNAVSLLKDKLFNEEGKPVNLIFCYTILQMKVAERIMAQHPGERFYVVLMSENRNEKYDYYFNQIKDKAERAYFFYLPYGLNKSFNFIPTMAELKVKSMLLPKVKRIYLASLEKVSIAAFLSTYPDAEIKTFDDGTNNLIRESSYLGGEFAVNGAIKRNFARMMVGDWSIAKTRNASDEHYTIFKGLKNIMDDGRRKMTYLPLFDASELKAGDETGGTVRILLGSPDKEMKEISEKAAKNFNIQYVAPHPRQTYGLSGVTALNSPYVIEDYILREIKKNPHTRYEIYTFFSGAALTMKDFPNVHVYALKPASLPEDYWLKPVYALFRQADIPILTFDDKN

N. gonorrhoeae H041 = experiment: BALB/c mouse vaginal colonization model; format: in vivo; conditions: 10 μg intravaginally daily; Premarin treated BALB/c mice
Experimental: FIG. 2: Female BALB/c mice 5-6 weeks of age (Jackson Laboratories) in the diestrus phase of the estrous cycle were started on treatment (that day) with 0.5 mg of Premarin (Pfizer) given subcutaneously on each of three days; −2, 0 and +2 days (before, the day of and after inoculation) to prolong the estrus phase of the cycle and promote susceptibility to N. gonorrhoeae infection. Antibiotics (vancomycin, colistin, neomycin, trimethoprim and streptomycin) that were ineffective against N. gonorrhoeae were also used to reduce competitive microflora. Mice (n=40) were then infected with 10^6 CFU of strain H041. Three groups of mice (n=10/group) were treated with 10 μg intravaginally daily (first dose was administered 30 minutes before the introduction of bacteria) with one of the following CMP-NulOs in normal saline: CMP-Leg5Ac7Ac, CMP-Neu5Ac9Az or CMP-KDN. A fourth group (n=10) was given saline (vehicle control). Vaginal swabs were obtained daily from each animal, serially diluted and plated on chocolate agar containing vancomycin, colistin, neomycin, trimethoprim and streptomycin (VCNTS) to quantify bacterial loads. A. Median time to clearance was estimated using Kaplan-Meier survival curves; the times to clearance were compared between groups using a log-rank test. P<0.0001 for the control versus each of the treatment groups. Time to clearance between each of the treatment groups was similar (P>0.05). B. The mean area under the curve (log10 CFU vs. time) was computed for each mouse to estimate the bacterial burden over time (cumulative infection); the means under the curves were compared between groups using the Kruskal-Wallis nonparametric rank sum test because distributions were skewed or kurtotic. Groups were compared using Dunn's multiple comparison test. ****, P<0.0001; **, P<0.01; *, P<0.05. The differences among the groups that received CMP-NulOs were not significant.
The mouse model experiments and statistical analysis were conducted as described in the art and in U.S. Pat. No. 9,765,106. […]

purified human FH = conditions: from U.S. Pat. No. 9,765,106 / Ser. No. 14/627,396; cited from earlier work
[3] = target: T1, gonococcal LOS sialyltransferase (Lst); experiment: mAb 3F11 binding by flow cytometry (incorporation of NulO on LNnT LOS by Lst); format: cell-based, N. gonorrhoeae F62 ΔlgtD; conditions: F62 ΔlgtD grown in media with 20 μg/mL CMP-NulO
Experimental: FIG. 1: CMP-KDN serves as a substrate for gonococcal LOS and incorporation of KDN on gonococcal lacto-N-neotetraose LOS enhances factor H (FH) binding. A. Incorporation of KDN by gonococci. Gonococcal strain F62 ΔlgtD (expresses lacto-N-neotetraose (LNnT) from Hepl) was grown in media containing CMP-KDN (20 μg/mL) and binding of mAb 3F11 was measured by flow cytometry. mAb 3F11 binds only to […] LNnT; substitution of the terminal Gal of LNnT, for example with a NulO, will decrease mAb 3F11 binding. Approximately 5×10^7 bacteria were incubated with mAb 3F11 tissue culture supernatants for 15 minutes at 37° C. Binding of mAb 3F11 was disclosed with anti-mouse IgM FITC (Sigma; dilution of 1:100). Bacteria grown in CMP-Neu5Ac or in media alone were used as positive and negative controls for sialylation, respectively. A representative histogram is shown in the upper panel. […] B. Factor H (FH) binding to gonococci grown in CMP-KDN. Approximately 5×10^7 bacteria grown in media alone (no sialic acid), media plus CMP-Neu5Ac (20 μg/mL; positive control for FH binding) or in media containing CMP-KDN (20 μg/mL) were incubated with purified human FH (20 μg/mL) in HBSS** for 15 minutes at 37° C. and bound FH was detected with affinity isolated goat anti-human FH followed by anti-goat IgG FITC (Sigma; 1:100 dilution). A representative histogram is shown in the upper panel.
FIG. 3: CMP-KDN7N3 serves as a substrate for gonococcal Lst resulting in incorporation of KDN7N3 on gonococcal lacto-N-neotetraose (LNnT) LOS—Incorporation of KDN7N3 by gonococci. Gonococcal strain F62ΔlgtD (expresses lacto-N-neotetraose (LNnT) from Hepl) was grown in media containing CMP-KDN7N3 (20 μg/mL) and binding of mAb 3F11 was measured by flow cytometry. mAb 3F11 binds only to […] LNnT; substitution of the terminal Gal of LNnT, for example with a NulO, will decrease mAb 3F11 binding. Approximately 5×10^7 bacteria were incubated with mAb 3F11 tissue culture supernatants for 15 minutes at 37° C. Binding of mAb 3F11 was disclosed with anti-mouse IgM FITC (Sigma; dilution of 1:100). […]

N. gonorrhoeae F62 ΔlgtD [4] = format: cell-based, Neisseria gonorrhoeae; conditions: for % survival in 3.3% serum / % survival in 10% serum: Table 5
Experimental: Generally, bacteria (F62 ΔlgtD) grown overnight on chocolate agar plates were suspended in gonococcal liquid media supplemented with IsoVitaleX [29] that contained specified concentrations of the CMP-nonulosonate. Bacteria were then incubated at 37° C. for the period specified in each experiment.
Serum bactericidal assays were performed as follows, similar to methods outlined in [32,33] and in U.S. Pat. No. 9,765,106. Bacteria were harvested from an overnight culture on chocolate agar plates and ˜10^5 CFU of Ng were grown in liquid media containing the concentrations of CMP-NuIO as specified for each experiment. Bacteria were diluted in Morse A and ˜2000 CFU of Ng F62 ΔlgtD were incubated with NHS (concentration specified for each experiment). The final reaction volumes were maintained at 150 μL. Aliquots of 25 μL of reaction mixtures were plated onto chocolate agar in duplicate at the beginning of the assay (t0) and again after incubation at 37° C. for 30 minutes (t30). Survival was calculated as the number of viable colonies at t30 relative to t0.
Addition of a terminal Neu5Ac residue to the LNnT LOS of N. gonorrhoeae that occurs in vivo or following the addition of CMP-Neu5Ac to growth media results in resistance to complement-dependent killing. We next determined the effects of LNnT incorporation of KDN on the ability of N. gonorrhoeae F62 ΔlgtD to resist complement-dependent killing by normal human sera at concentrations of 3.3% or 10%. Bacteria were grown either in media alone, or media supplemented with 20 μg/mL of CMP-Neu5Ac or CMP-KDN. In addition, CMP-NulO competition experiments were also performed with CMP-Neu5Ac, CMP-Leg5Ac7Ac and CMP-KDN at CMP-NulO concentrations of either 20 μg/mL or 2 μg/mL as indicated, where the second CMP-NulO was added 15 minutes after the first (Table 1 below). To note, these CMP-NulO competition experiments are a method to examine the ability of select CMP-NulOs to counter the enhanced serum resistance due to CMP-Neu5Ac addition, providing information on their therapeutic potential (as any potential therapeutic will be required to compete with CMP-Neu5Ac in vivo).

SMILES | serum resistance / serum-mediated killing (earlier results) (N. gonorrhoeae F62 ΔlgtD [1]) | substrate for gonococcal LOS sialyltransferase (Lst) (earlier results) [2] | attenuation of N. gonorrhoeae H041 infection (N. gonorrhoeae H041) | fH binding to bacteria (earlier results) (purified human FH) | binding of mAb 3F11 (use as substrate by gonococcal Lst) [3] | serum sensitivity (in words) (N. gonorrhoeae F62 ΔlgtD [4]; CMP-NulO alone, 10% serum) | % survival in 3.3% serum (N. gonorrhoeae F62 ΔlgtD [4]; CMP-NulO 20 μg/mL) [%] | % survival in 10% serum (N. gonorrhoeae F62 ΔlgtD [4]; CMP-NulO 20 μg/mL, 10% serum) [%] | % survival in 3.3% serum (N. gonorrhoeae F62 ΔlgtD [4]; CMP-NulO 100 μg/mL) [%] | % survival in 10% serum (N. gonorrhoeae F62 ΔlgtD [4]; CMP-NulO 100 μg/mL, 10% serum) [%]
CC(=O)NC1C(O)CC(OP(=O)(O)OCC2OC(n3ccc(N)nc3=O)C(O)C2O)(C(=O)O)OC1C(O)C(O)COC(C)=O (stereo not drawn) [CMP-Neu5Ac9Ac] | enhanced serum-mediated killing | can serve as substrates for gonococcal LOS sialyltransferase (Lst) |  |  |  |  |  |  |  | 
CC(=O)N[C@H]1[C@H]([C@H](O)[C@H](O)CN=[N+]=[N-])OC(OP(=O)(O)OC[C@H]2O[C@@H](n3ccc(N)nc3=O)[C@H](O)[C@@H]2O)(C(=O)O)C[C@@H]1O (stereo partly drawn) [CMP-Neu5Ac9Az] | enhanced serum-mediated killing | can serve as substrates for gonococcal LOS sialyltransferase (Lst) | significantly attenuated | not enhance fH binding above levels seen with an unsialylated F62 ΔlgtD control |  |  |  |  |  | 
CO[C@H](CO)[C@@H](O)[C@@H]1O[C@@](OP(=O)(O)OC[C@H]2O[C@@H](n3ccc(N)nc3=O)[C@H](O)[C@@H]2O)(C(=O)O)C[C@H](O)[C@H]1NC(=O)CO [CMP-Neu5Gc8Me] | enhanced serum-mediated killing | can serve as substrates for gonococcal LOS sialyltransferase (Lst) |  | not enhance fH binding above levels seen with an unsialylated F62 ΔlgtD control |  |  |  |  |  | 
[N-]=[N+]=N[C@@H](C1O[C@](OP(=O)(O)OC[C@H]2O[C@@H](n3ccc(N)nc3=O)C(O)C2O)(C(=O)O)CC(O)[C@H]1O)[C@H](O)CO (stereo partly drawn) [CMP-KDN7N3, cytidine 5′-monophospho-3,7-dideoxy-7-azido-D-glycero-D-galacto-nonulosonic acid] |  |  |  |  | could be utilized by gonococcal LOS sialyltransferase (Lst) | resulted in serum sensitivity | 125.60 | 33.92 | 123.67 | 22.52
Nc1ccn([C@@H]2O[C@H](COP(=O)(O)O[C@@]3(C(=O)O)C[C@H](O)[C@@H](NC(=O)CO)[C@H]([C@H](O)[C@H](O)CO)O3)[C@@H](O)[C@H]2O)c(=O)n1 [CMP-Neu5Gc] | able to simulate the high-level serum resistance reported for CMP-Neu5Ac | can serve as substrates for gonococcal LOS sialyltransferase (Lst) |  | high level of fH binding to bacteria |  |  |  |  |  | 
